Results: patent US20210116454A1, “METHODS FOR TREATING A HEMATOLOGICAL CANCER AND THE USE OF COMPANION BIOMARKERS FOR 2-(2,6-DIOXOPIPERIDIN-3-YL)-4-((2-FLUORO-4-((3-MORPHOLINOAZETIDIN-1-YL)METHYL)BENZYL)AMINO)ISOINDOLINE-1,3-DIONE” (CELGENE CORPORATION, priority 2019, published 2021)

Tests used:
BT system = experiment: BioMAP BT system (B cells and PBMCs); format: cell-based, human; conditions: 0.01, 0.1, 1, and 10 μM
Experimental: (§1) The activity of Compound 1 was profiled in a panel of human primary cell-based assays, modeling complex tissue and disease biology of organs (vasculature, immune system, skin, lung) and general tissue biology using the BioMAP System (DiscoveRx, Fremont, Calif.).
The BioMAP System consists of twelve primary human monoculture or co-culture systems in stimulated and non-stimulated control conditions (FIG. 4, panel A). When tested at 0.01, 0.1, 1, and 10 μM, Compound 1 mediated changes in key biomarker activities. Specifically, the profiles for Compound 1 reflected selective anti-inflammatory and immunomodulatory impact on monocyte (LPS) and T cell dependent B cell activation responses (BT). Treatment with Compound 1 led to a decrease in interleukin 8 (IL-8), interleukin 1a (IL-1a), secreted prostaglandin E2 (sPGE2), and secreted tumor necrosis factor alpha (sTNFα) in the LPS system, which consisted of peripheral blood mononuclear cells (PBMCs) and endothelial cells. Furthermore, secreted IgG (sIgG), secreted interleukin 17A (sIL-17A), secreted interleukin 17F (sIL-17F), and sTNFα decreased, whereas secreted interleukin 2 (sIL-2) and secreted interleukin 6 (sIL-6) increased, in the BT system, which was comprised of B cells and PBMCs.

[1] = system: endothelial cells, T- and B-lymphocytes, coronary smooth muscle cells, and fibroblasts; experiment: BioMAP Diversity PLUS Panel, antiproliferative effects; format: cell-based, human
Experimental: The BioMAP Diversity PLUS Panel was assessed after treatment with Compound 1. The X-axis lists the quantitative protein-based biomarker readouts measured in each system. The Y-axis represents a log-transformed ratio of the biomarker readouts for the drug-treated sample (n=1) over vehicle controls (n≥6). The grey region around the Y-axis represents the 95% significance envelope generated from historical vehicle controls. Biomarker activities were annotated when 2 or more consecutive concentrations change in the same direction relative to vehicle controls, are outside of the significance envelope, and have at least one concentration with an effect size >20% (log 10 ratio >0.1). Antiproliferative effects are indicated by a thick grey arrow.
as §1
The BioMAP System consists of twelve primary human monoculture or co-culture systems in stimulated and non-stimulated control conditions (FIG. 4, panel A). When tested at 0.01, 0.1, 1, and 10 μM, Compound 1 mediated changes in key biomarker activities. […]

DoxoR cell lines = experiment: Doxorubicin-resistant (DoxoR) versus matching parental DLBCL lines; format: cell-based; conditions: DoxoR versus matching parental cells
Experimental: The activity of Compound 1 was also evaluated in cell lines with acquired resistance to doxorubicin (Table 4). Doxorubicin-resistant cell lines (DoxoR) were generated by culturing the parental cell lines in vitro with increasing concentrations of doxorubicin for a long period of time (˜9 to 18 months) until they were able to grow in the presence of a relatively high concentration of doxorubicin (1 μM). Matching parental (M-Parent) cells were generated by maintaining the parental cells in culture without treatment for the same amount of time (˜9 to 18 months). The growth-inhibitory effect of doxorubicin on parental cells and the corresponding resistant cells was evaluated by measuring the number of viable cells and extent of apoptosis by 7-AAD exclusion and Annexin V staining using flow cytometry.

SMILES	sIL-2 and sIL-6 (BT system)	sIgG, sIL-17A, sIL-17F, and sTNFα (BT system)	antiproliferative effects in BioMAP systems [1]	shifts in IC50 values for doxorubicin in DoxoR lines (DoxoR cell lines)
O=C1CC[C@H](N2C(=O)c3cccc(NCc4ccc(CN5CC(N6CCOCC6)C5)cc4F)c3C2=O)C(=O)N1 [Compound 1, (S)-2-(2,6-dioxopiperidin-3-yl)-4-((2-fluoro-4-((3-morpholinoazetidin-1-yl)methyl)benzyl)amino)isoindoline-1,3-dione]	increased	decreased	selectively antiproliferative	
COc1cccc2c1C(=O)c1c(O)c3c(c(O)c1C2=O)C[C@@](O)(C(=O)CO)C[C@@H]3O[C@H]1C[C@H](N)[C@H](O)[C@H](C)O1 [Doxorubicin, reference compound]				more than 100 fold
